# In US20140148484A1, “PYRAZOLE COMPOUNDS FOR TREATING HAIRLOSS” (Boehringer Ingelheim International GmbH, priority 2012, published 2014):
# pKi: −log10 of the molar value.
# Legend:
# human CRTH2 receptor = target: T1, human CRTH2 receptor (Homo sapiens, UniProt Q9Y5Y4); experiment: Human CRTH2 receptor membrane radioligand binding assay (SPA, [3H]-PGD2); conditions: displacement of [3H]-PGD2 (1 nM) from CHO-K1-hCRTH2 cell membranes, 3 h room temperature
# T1 construct: host or cells: CHO-K1 (CHO-K1-hCRTH2 cells); membranes prepared in house from the purchased cell line
# T1 sequence (Q9Y5Y4 1-395): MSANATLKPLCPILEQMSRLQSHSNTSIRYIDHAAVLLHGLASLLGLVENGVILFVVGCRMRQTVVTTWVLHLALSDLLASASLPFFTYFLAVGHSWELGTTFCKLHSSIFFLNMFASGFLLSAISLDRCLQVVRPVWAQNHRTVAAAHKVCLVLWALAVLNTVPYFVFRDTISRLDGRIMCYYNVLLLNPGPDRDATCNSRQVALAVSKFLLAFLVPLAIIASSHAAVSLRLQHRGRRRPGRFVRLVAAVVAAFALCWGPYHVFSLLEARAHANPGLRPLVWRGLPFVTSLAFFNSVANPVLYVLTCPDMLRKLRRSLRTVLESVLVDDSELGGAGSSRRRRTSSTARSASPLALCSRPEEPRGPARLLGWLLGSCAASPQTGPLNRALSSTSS
# In short: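 SPA binding using membranes from CHO-K1 cells expressing human CRTH2 (0.5–10 μg protein/well) with 1 nM [3H]-PGD2 in Tris pH 7.4 buffer with 0.1% BSA, 3 h at room temperature. Non-specific binding defined with 1 μM PGD2 or 10 μM CAY10471; inhibition calculated from specific binding.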
# hair growth in mice = conditions: applied topically to the skin of wild-type mice; cited from earlier work
# [1] = tested on: explanted human hair follicles; conditions: administration to explanted human hair follicles; cited from earlier work
SMILES,pKi (human CRTH2 receptor),other results
CCc1nn(Cc2ccc(/C=C/c3ccc(Cl)cc3)cc2)c(CC)c1CC(=O)O [Example 12.3],7.91,–
Cc1nn(Cc2ccc(OCc3ccc(Cl)c(Cl)c3)cc2)c(C)c1CC(=O)O [Example 13.1],7.52,–
Cc1nn(Cc2ccc(OCc3ccc(C(F)(F)F)cc3)cc2)c(C)c1CC(=O)O [Example 13.2],5.97,–
Cc1cc(Cl)ccc1COc1ccc(Cn2nc(C)c(CC(=O)O)c2C)cc1 [Example 13.3],6.21,–
Cc1nn(Cc2ccc(OCc3ccccc3)cc2)c(C)c1CC(=O)O [Example 13.4],6.49,–
Cc1nn(Cc2ccc(OCc3ccc(Cl)c(C(F)(F)F)c3)cc2)c(C)c1CC(=O)O [Example 13.5],7.44,–
COc1ccc(COc2ccc(Cn3nc(C)c(CC(=O)O)c3C)cc2)cc1C(F)(F)F [Example 13.6],7.54,–
CCc1nn(Cc2ccc(OCc3cc(Cl)cc(Cl)c3)cc2)c(CC)c1CC(=O)O [Example 13.8],7.81,–
CCc1nn(Cc2ccc(OCc3cccc(Cl)c3)cc2)c(CC)c1CC(=O)O [Example 13.9],7.41,–
CCc1nn(Cc2ccc(OCc3cccc(C(F)(F)F)c3)cc2)c(CC)c1CC(=O)O [Example 13.10],7.71,–
CCc1nn(Cc2ccc(OCc3ccc(OC(F)(F)F)c(Cl)c3)cc2)c(CC)c1CC(=O)O [Example 13.11],7.31,–
CCc1nn(Cc2ccc(OCc3ccc(OC)c(C(F)(F)F)c3)cc2)c(CC)c1CC(=O)O [Example 13.12],8.30,–
CCc1nn(Cc2ccc(OCc3cccc(C)c3)cc2)c(CC)c1CC(=O)O [Example 13.13],7.30,–
Cc1nn(Cc2ccc(COc3ccc(C(F)(F)F)cc3)cc2)c(C)c1CC(=O)O [Example 14.1],5.81,–
Cc1nn(Cc2ccc(COc3ccc(Cl)c(Cl)c3)cc2)c(C)c1CC(=O)O [Example 14.2],7.37,–
Cc1nn(Cc2ccc(COc3ccccc3)cc2)c(C)c1CC(=O)O [Example 14.3],6.13,–
Cc1nn(Cc2ccc(C(C)Oc3ccc(Cl)c(Cl)c3)cc2)c(C)c1CC(=O)O (stereo not drawn) [Example 14.4],7.54,–
Cc1nn(Cc2ccc(C(C)Oc3ccc(C(F)(F)F)cc3)cc2)c(C)c1CC(=O)O (stereo not drawn) [Example 14.5],6.60,–
Cc1nn(Cc2ccc(C(C)Oc3ccccc3)cc2)c(C)c1CC(=O)O (stereo not drawn) [Example 14.6],6.37,–
Cc1nn(Cc2ccc(C(O)Cc3ccccc3)cc2)c(C)c1CC(=O)O (stereo not drawn) [Example 15.1],6.11,–
Cc1nn(Cc2ccc(C(=O)Cc3ccccc3)cc2)c(C)c1CC(=O)O [Example 15.2],6.26,–
"CCCCC[C@H](O)/C=C/[C@H]1C(=O)C[C@H](O)[C@@H]1C/C=C\CCCC(=O)O [PGD2, prostaglandin D2]",–,hair growth (hair growth in mice): inhibited hair growth; hair growth [1]: inhibited hair growth

# Continued, in another order:
pKi (human CRTH2 receptor),SMILES,other results
6.00,Cc1nn(Cc2ccc(CSc3ccc(C(F)(F)F)cc3)cc2)c(C)c1CC(=O)O [Example 16.1],–
6.49,Cc1nn(Cc2ccc(C[S+]([O-])c3ccc(C(F)(F)F)cc3)cc2)c(C)c1CC(=O)O (stereo not drawn) [Example 16.2],–
5.64,Cc1nn(Cc2ccc(CS(=O)(=O)c3ccc(C(F)(F)F)cc3)cc2)c(C)c1CC(=O)O [Example 16.3],–
6.06,Cc1nn(Cc2ccc(CSc3ccc(Cl)c(Cl)c3)cc2)c(C)c1CC(=O)O [Example 16.4],–
6.49,Cc1nn(Cc2ccc(C[S+]([O-])c3ccc(Cl)c(Cl)c3)cc2)c(C)c1CC(=O)O (stereo not drawn) [Example 16.5],–
6.07,Cc1nn(Cc2ccc(CS(=O)(=O)c3ccc(Cl)c(Cl)c3)cc2)c(C)c1CC(=O)O [Example 16.6],–
10.00,CCc1nn(C(C)c2ccc(NC(=O)c3ccc(C(F)(F)F)cc3)cc2)c(CC)c1CC(=O)O (stereo not drawn) [Example 17.1],–
8.37,CCc1nn(C(C)c2ccc(C(=O)Nc3ccc(C(F)(F)F)cc3)cc2)c(CC)c1CC(=O)O (stereo not drawn) [Example 17.2],–
8.80,Cc1nn(Cc2ccc(NC(=O)c3ccc(Cl)c(Cl)c3)cn2)c(C)c1CC(=O)O [Example 18.1],–
7.36,Cc1nn(Cc2ccc([S+]([O-])Cc3ccc4ccccc4c3)cc2)c(C)c1CC(=O)O (stereo not drawn) [Example 19.1],–
7.92,Cc1nn(Cc2ccc([S+]([O-])Cc3ccc(Cl)c(Cl)c3)cc2)c(C)c1CC(=O)O (stereo not drawn) [Example 19.2],–
7.91,CCc1nn(Cc2ccc([S+]([O-])Cc3ccc(Cl)c(Cl)c3)cc2)c(CC)c1CC(=O)O (stereo not drawn) [Example 19.3],–
7.31,CCc1nn(Cc2ccc([S+]([O-])Cc3ccccc3)cc2)c(CC)c1CC(=O)O (stereo not drawn) [Example 19.4],–
